Patent US20070099879A1 (priority 2005, published 2007)
“Also recorded” adds a separate entry of the source.

Assays:
retinoblastoma = settings: 0.05 μg/d, mice; cited from earlier work
[1] = test system: retinal neovascularization; assay: Mouse oxygen-induced ischemic retinopathy (OIR) model, retinal neovascularization; type: in vivo; settings: for inhibition of neovascularization: P17 mice
Protocol: All experimental procedures involving animals were performed according to the ARVO Statement for the Use of Animals in Ophthalmic and Vision Research. […] In this model, 7-day-old (P7) pups (8-10 pups) and their mother were placed in an airtight incubator and exposed to an atmosphere of 75±0.5% oxygen (hyperoxia) for 5 days. Incubator temperature was maintained at 23±2° C., and oxygen was continuously monitored with a PROOX model 110 oxygen controller (Reming Bioinstruments Co., Redfield, N.Y.). Mice were then brought to room air for 5 days. Maximum retinal neovascularization occurred from P12 to P17. […] The other half of the littermates was injected with 0.1 ml of mineral oil. Generally one eye from each mouse was used for histochemical analysis and the other eye for histological evaluation as outlined below. These experiments were repeated at least 3 times for each dose.
Briefly, P17 mouse eyes were enucleated and briefly fixed in 4% paraformaldehyde in phosphate buffered saline (PBS) (10 min on ice). The paraformaldehyde fixed eyes were then fixed in 70% ethanol for at least 24 h at −20° C. Retinas were dissected in PBS and then washed with PBS 3 times, 10 min each. Following incubation in blocking buffer (50% fetal calf serum, 20% normal goat serum (NGS) in PBS) for 2h, the retinas were incubated with rabbit anti-mouse collagen IV (Chemicon, diluted 1:500 in PBS containing 20% fetal calf serum, 20% normal goat serum) at 4° C. overnight. Retinas were then washed 3 times with PBS, 10 min each, incubated with a secondary antibody Alexa 594-labeled goat-anti-rabbit (Invitrogen, Carlsbad, Calif.), at 1:500 dilution prepared in PBS containing 20% FCS, 20% NGS for 2 h at room temperature, washed 4 times with PBS (30 min each), and mounted on a slide with PBS/glycerol (2vol/1vol). Retinas were viewed by fluorescence microscopy, and images were captured in digital format using a Zeiss microscope (Carl Zeiss, Chester, Va.).
Quantification of retinal neovascularization on P17 was performed by counting vascular cell nuclei anterior to the […] (Wang S, et al., Attenuation of Retinal Vascular Development and Neovascularization during Oxygen-Induced Ischemic Retinopathy in Bcl-2 -/- Mice. Developmental Biol. 2005;279:205-219). Briefly, mice eyes were enucleated, fixed in formalin for 24 h, and embedded in paraffin. Serial sections (6 μm), each separated by at least 40 μm, were taken from around the region of the optic nerve. The hematoxylin- and PAS-stained sections were examined in masked fashion, by two independent observers without the knowledge of the samples identity, the presence of neovascular tufts projecting into the vitreous from the retina. […]

[2] = test system: retinal endothelial cells; assay: Retinal endothelial cell proliferation assay (CellTiter 96 AQueous); type: cell-based, mouse; settings: for Relative Survival: relative to solvent control
Protocol: Primary mouse retinal endothelial cell (REC) cultures were prepared and maintained as described previously (Su X, et al., Isolation and characterization of murine retinal endothelial cells. Mol Vision. 2003;9:171-178). Briefly, REC were isolated from wild type or transgenic-immortomouse by collagenase digestion of retina and affinity purification using magnetic beads coated with platelet/endothelial cell adhesion molecule-1 (anti-PECAM-1). The bound cells were plated on fibronectin-coated wells and expanded. The REC were characterized for expression and localization of endothelial cell markers by fluorescence-activated cell sorting (FACS) analysis and indirect immuno fluorescence staining. The ability of these cells to form capillary like networks was assessed on matrigel™. For cell proliferation assays, retinal endothelial cell (10,000) were plated in triplicate in 96-well plates and incubated overnight. […] The degree of proliferation was assessed using the nonradioactive cell proliferation assay (CellTiter 96® AQueous; Promega, Madison, Wis.) as recommended by the supplier.

retinal EC [3] = assay: Retinal EC wound migration assay; type: cell-based, mouse; settings: 10 μM calcitriol, 0, 24 and 48 hours
Protocol: (§1) Retinal EC migration was determined using both wound migration and transwell assays. […] Wound closure was monitored by phase microscopy, and digital images were obtained at different time points used for quantitative assessment of migration. For transwell migration, wells (8 μm pore size, 6.5 mm membrane; Costar) were coated with Matrigel™ (200 μg/ml) or fibronectin (2 μg/ml) in PBS on the bottom side at 4° C. overnight. The next day, inserts were rinsed with PBS, blocked in PBS containing 2% BSA for 1 h at room temperature, and washed with PBS. Cells were removed by trypsin-EDTA, counted, and resuspended at 1×10^6 cells/ml in serum-free medium. Inserts were placed in 24-well dishes (Costar) containing 0.5 ml of serum-free medium and 0. 1 ml of cell suspension was then added to the top of the insert. Cells were allowed to migrate through the filter for 3 h in a tissue culture incubator. After incubation, the cells on the top of the filter were scraped off using a cotton swab; the membrane was then fixed in 4% paraformaldehyde and stained with hematoxylin and eosin. The inserts were then mounted on a slide cell side up, and the number of cells which migrated to the bottom of the filter was determined by counting 10 high power fields at X200 magnification.

[4] = Toxic effect assessment: body weight of mice during OIR; settings: mouse, in vivo
Description: In the OIR studies, all pups had similar body weight prior to initiation of the experiment (P12) and after exposure to high oxygen (P17).

VEGF = assay: Western blot of VEGF in whole eye extracts of P15 mice during OIR; type: in vivo, mouse
Protocol: Vascular endothelial growth factor (VEGF) levels were determined by Western blotting of whole eye extracts prepared from P15 mice during OIR (5 days of hyperoxia and 3 days of normoxia) when maximum levels of VEGF were expressed (Wang S, et al. Attenuation of Retinal Vascular Development and Neovascularization during Oxygen-Induced Ischemic Retinopathy in Bcl-2 -/- Mice. Developmental Biol. 2005;279:205-219). Mice were euthanized by CO2 inhalation, then eyes from 2 or 3 mice dissected, homogenized in 0.2 ml of RIPA buffer, 10 mM HEPES pH 7.6, 142.5 mM KCl, 1% NP-40, and protease inhibitor cocktail, (Roche Applied Science, Indianapolis, Ind.), sonicated briefly, and incubated at 4° C. for 20 min. […] Supernatants were transferred to a clean tube, and protein concentrations were determined using the DC Protein Assay (Bio-Rad Laboratories, Hercules, Calif., Cat. No. 500-011 1). Approximately 20 μg of protein from the centrifuged homogenates were analyzed by SDS-PAGE (4-20% Tris-Glycin gel, Invitrogen, Carlsbad, Calif.) under reducing conditions and transferred to a nitrocellulose membrane. […] For quantitative assessments, the band intensities relative to loading controls were determined by scanning the blots using the Molecular Dynamics Storm 860 Scanner and Image Quant Software (Amersham Biosciences, Piscataway, N.J.).

[5] = test system: retinal endothelial cells; assay: Retinal endothelial cell capillary morphogenesis in Matrigel; type: cell-based, mouse; settings: 10 μM calcitriol, 18 h
Protocol: The ability of the cultured retinal endothelial cells to form capillary like networks was assessed on Matrigel™ (B D Biosciences, San Jose, Calif.). The capillary morphogenesis assays in Matrigel™ were performed as previously described (Su X, et al., Isolation and characterization of murine retinal endothelial cells. Mol Vision. 2003;9:171-178; Rothermel T A, et al., Polyoma virus middle-T-transformed PECAM-1 deficient mouse brain endothelial cells proliferate rapidly in culture and form hemangiomas in mice. J Cell Physiol. 2005;202:230-239). Briefly, 0.5 ml of Matrigel™ was added to a cold 35 mm tissue culture plate and incubated at 37° C. for at least 30 min to allow the Matrigel™ to harden. […] Cultures were monitored for 6-48 h, and images were captured in digital format after 18 h when maximum organization was observed. […] The capillary network formed by control cells began to fall apart at 24-48 h.

retinal EC [6] = assay: Retinal EC transwell migration assay; type: cell-based, mouse; settings: 10 μM calcitriol, 3 h
Protocol: as §1, with “Cells were allowed to migrate through the filter for 3 h in a tissue culture incubator. After incubation, the cells on the top of the filter were scraped off using a cotton swab; the membrane was then fixed in 4% paraformaldehyde and stained with hematoxylin and eosin.” left out
FIG. 5C illustrate is a quantification of the transwell assay as described above. […] Cells were removed by trypsin-EDTA, counted, and resuspended at 1×10^6 cells/ml in serum-free medium. […] The inserts were then mounted on a slide cell side up and the number of cells which migrated to the bottom of the filter was determined by counting 10 high power fields at ×200 magnification. […]

SMILES: C=C1/C(=C\C=C2/CCC[C@]3(C)[C@@H]([C@H](C)CCCC(C)(C)O)CC[C@@H]23)C[C@@H](O)C[C@@H]1O [calcitriol, 1α,25-dihydroxyvitamin D3]
- decrease in retinal involvement of retinoblastoma compared to controls (retinoblastoma): 50%
- MEAN NUMBER OF ENDOTHELIAL NUCLEI ([1]; 0.025 μg (~5 μg/Kg), n = 4, mean ± SD, P17, control 39.9 ± 6.4, P < 0.001): 3.8 ± 2.2 (SD)
- inhibition of neovascularization ([1]; 0.5 μg/Kg calcitriol, vs control): 60%
- inhibition of neovascularization ([1]; 2.5 μg/Kg calcitriol, vs control): 75%
- inhibition of retinal neovascularization ([1]; 5 μg/Kg (0.025 μg) calcitriol i.p. per day P12 to P17, P17 mice, vs control): greater than 90%
- Relative Survival ([2]; 0.25 μM calcitriol, 3 days): 108%
- Relative Survival ([2]; 0.50 μM calcitriol, 3 days): 111%
- Relative Survival ([2]; 10.00 μM calcitriol, 3 days): 111%
- Relative Survival ([2]; 50.00 μM calcitriol, 3 days): 87%
- Relative Survival ([2]; 100.00 μM calcitriol, 3 days): 12%
- inhibition at 100 µM ([2]; Mus musculus, Endothelial cell, 72 h, read-out: inhibition of retinal endothelial cell proliferation, 100 μM calcitriol, 3 days): 90%
- effect on retinal endothelial cell proliferation ([2]; calcitriol 0-10 μM, 9 days): no effect; also recorded: minimal effects
- effect on retinal endothelial cell proliferation ([2]; calcitriol 50 μM and higher): significant inhibition; also recorded: Significant toxicity
- effect on retinal endothelial cell proliferation ([2]; calcitriol up to 10 μM, 3 days): No significant inhibition
- effect on retinal endothelial cell proliferation ([2]; calcitriol up to 10 μM, 3 days, listed as Calcitriol): no effect
- retinal EC wound migration vs ethanol control (retinal EC [3]): not significant
- Body Weight [4]: 5.04 ± 0.23
- mortality during OIR experiments [4]: None of the experimental animals died
- Relative Intensity of Expressed VEGF (VEGF; 0.025 μg (~5 μg/Kg), n = 3, P15 eye extracts, relative to β-catenin, mean ± SD, control 0.39 ± 0.08): 0.37 ± 0.06 (SD)
- difference in VEGF expression between control and calcitriol-treated eyes (VEGF; 5 μg/Kg, P15 mice during OIR): no significant difference
- capillary morphogenesis in Matrigel [5]: completely inhibited; also recorded: completely abolished
- capillary morphogenesis in Matrigel ([5]; listed as Calcitriol): no capillaries are observed
- retinal EC migration through filter coated with Matrigel (retinal EC [6]): no significant effect
- retinal EC migration through filters coated with fibronectin (retinal EC [6]; compared to solvent control (not shown)): slightly enhanced
